pIC50: −log10 of the molar value.
System: Staphylococcus aureus
Assay: Antimicrobial activity against Staphylococcus aureus at 200 ug after 24 hrs by agar disc diffusion method
Format: functional
Details: read-out: DIZ
Compound `Cc1ccc2nc(Sc3ncccc3C(=O)O)n(Cc3ccccc3)c(=O)c2c1` has a zone of inhibition at 200 µg/disc of 15 mm.

System: NCI-H23
Assay: Cytotoxicity against human NCI-H23 cells at 10 uM after 48 hrs by coulter counter analysis
Format: functional
Details: NCI-H23, 48 h, read-out: GI
For `Cc1ccc2nc(Sc3ncccc3C(=O)O)n(Cc3ccccc3)c(=O)c2c1`, the inhibition of growth at 10 µM was < 10%.

System: MOLT-4
Assay: Cytotoxicity against human MOLT4 cells at 10 uM after 48 hrs by coulter counter analysis
Format: functional
Details: MOLT-4, 48 h, read-out: GI
`Cc1ccc2nc(Sc3ncccc3C(=O)O)n(Cc3ccccc3)c(=O)c2c1` gave an inhibition of growth at 10 µM of 15.3%.

System: SN12C
Assay: Cytotoxicity against human SN12C cells at 10 uM after 48 hrs by coulter counter analysis
Format: functional
Details: read-out: GI
Work on `Cc1ccc2nc(Sc3ncccc3C(=O)O)n(Cc3ccccc3)c(=O)c2c1` yielded an inhibition of growth at 10 µM of 11.2%.

System: Escherichia coli
Assay: Antimicrobial activity against Escherichia coli at 200 ug after 24 hrs by agar disc diffusion method
Format: functional
Details: read-out: DIZ
Work on `Cc1ccc2nc(Sc3ncccc3C(=O)O)n(Cc3ccccc3)c(=O)c2c1` yielded a zone of inhibition at 200 µg/disc of 8 mm.

System: MDA-MB-231
Assay: Cytotoxicity against human MDA-MB-231 cells at 10 uM after 48 hrs by coulter counter analysis
Format: functional
Details: MDA-MB-231, 48 h, read-out: GI
`Cc1ccc2nc(Sc3ncccc3C(=O)O)n(Cc3ccccc3)c(=O)c2c1` gave an inhibition of growth at 10 µM of 30.5%.

System: Hs-578T
Assay: Cytotoxicity against human Hs578T cells at 10 uM after 48 hrs by coulter counter analysis
Format: functional
Details: read-out: GI
Work on `Cc1ccc2nc(Sc3ncccc3C(=O)O)n(Cc3ccccc3)c(=O)c2c1` yielded an inhibition of growth at 10 µM of 12.5%.

System: Malme-3M
Assay: Cytotoxicity against human MALME-3M cells at 10 uM after 48 hrs by coulter counter analysis
Format: functional
Details: read-out: GI
In the case of `Cc1ccc2nc(Sc3ncccc3C(=O)O)n(Cc3ccccc3)c(=O)c2c1`, the inhibition of growth at 10 µM was < 10%.

System: OVCAR-4
Assay: Cytotoxicity against human OVCAR4 cells at 10 uM after 48 hrs by coulter counter analysis
Format: functional
Details: OVCAR-4, 48 h, read-out: GI
In the case of `Cc1ccc2nc(Sc3ncccc3C(=O)O)n(Cc3ccccc3)c(=O)c2c1`, the inhibition of growth at 10 µM was 16.2%.

System: HL-60(TB)
Assay: Cytotoxicity against human HL-60(TB) cells at 10 uM after 48 hrs by coulter counter analysis
Format: functional
Details: HL-60, 48 h, read-out: GI
With `Cc1ccc2nc(Sc3ncccc3C(=O)O)n(Cc3ccccc3)c(=O)c2c1` the inhibition of growth at 10 µM was < 10%.

System: PC-3
Assay: Cytotoxicity against human PC3 cells at 10 uM after 48 hrs by coulter counter analysis
Format: functional
Details: PC-3, 48 h, read-out: GI
Compound `Cc1ccc2nc(Sc3ncccc3C(=O)O)n(Cc3ccccc3)c(=O)c2c1` has an inhibition of growth at 10 µM of 32.8%.

System: SNB-75
Assay: Cytotoxicity against human SNB75 cells at 10 uM after 48 hrs by coulter counter analysis
Format: functional
Details: SNB-75, 48 h, read-out: GI
`Cc1ccc2nc(Sc3ncccc3C(=O)O)n(Cc3ccccc3)c(=O)c2c1` showed an inhibition of growth at 10 µM of 30%.

System: CAKI-1
Assay: Cytotoxicity against human Caki1 cells at 10 uM after 48 hrs by coulter counter analysis
Format: functional
Details: CAKI-1, 48 h, read-out: GI
In the case of `Cc1ccc2nc(Sc3ncccc3C(=O)O)n(Cc3ccccc3)c(=O)c2c1`, the inhibition of growth at 10 µM was 41.2%.

System: UACC-62
Assay: Cytotoxicity against human UACC62 cells at 10 uM after 48 hrs by coulter counter analysis
Format: functional
Details: UACC-62, 48 h, read-out: GI
Compound `Cc1ccc2nc(Sc3ncccc3C(=O)O)n(Cc3ccccc3)c(=O)c2c1` has an inhibition of growth at 10 µM of 30.4%.

System: SNB-19
Assay: Cytotoxicity against human SNB19 cells at 10 uM after 48 hrs by coulter counter analysis
Format: functional
Details: SNB-19, 48 h, read-out: GI
For `Cc1ccc2nc(Sc3ncccc3C(=O)O)n(Cc3ccccc3)c(=O)c2c1`, the inhibition of growth at 10 µM was 14.2%.

System: A498
Assay: Cytotoxicity against human A498 cells at 10 uM after 48 hrs by coulter counter analysis
Format: functional
Details: A498, 48 h, read-out: GI
In the case of `Cc1ccc2nc(Sc3ncccc3C(=O)O)n(Cc3ccccc3)c(=O)c2c1`, the inhibition of growth at 10 µM was 11.4%.

System: UO-31
Assay: Cytotoxicity against human UO31 cells at 10 uM after 48 hrs by coulter counter analysis
Format: functional
Details: UO-31, 48 h, read-out: GI
`Cc1ccc2nc(Sc3ncccc3C(=O)O)n(Cc3ccccc3)c(=O)c2c1` gave an inhibition of growth at 10 µM of 20.6%.

System: Bacillus subtilis
Assay: Antimicrobial activity against Bacillus subtilis at 200 ug after 24 hrs by agar disc diffusion method
Format: functional
Details: read-out: DIZ
Compound `Cc1ccc2nc(Sc3ncccc3C(=O)O)n(Cc3ccccc3)c(=O)c2c1` has a zone of inhibition at 200 µg/disc of 16 mm.

System: NCI-H522
Assay: Cytotoxicity against human NCI-H522 cells at 10 uM after 48 hrs by coulter counter analysis
Format: functional
Details: NCI-H522, 48 h, read-out: GI
`Cc1ccc2nc(Sc3ncccc3C(=O)O)n(Cc3ccccc3)c(=O)c2c1` gave an inhibition of growth at 10 µM of 24.4%.

System: Micrococcus luteus
Assay: Antimicrobial activity against Micrococcus luteus at 200 ug after 24 hrs by agar disc diffusion method
Format: functional
Details: read-out: DIZ
In the case of `Cc1ccc2nc(Sc3ncccc3C(=O)O)n(Cc3ccccc3)c(=O)c2c1`, the zone of inhibition at 200 µg/disc was 12 mm.

System: SK-MEL-5
Assay: Cytotoxicity against human SK-MEL-5 cells at 10 uM after 48 hrs by coulter counter analysis
Format: functional
Details: SK-MEL-5, 48 h, read-out: GI
`Cc1ccc2nc(Sc3ncccc3C(=O)O)n(Cc3ccccc3)c(=O)c2c1` gave an inhibition of growth at 10 µM of 14.4%.

System: SF-295
Assay: Cytotoxicity against human SF295 cells at 10 uM after 48 hrs by coulter counter analysis
Format: functional
Details: SF-295, 48 h, read-out: GI
`Cc1ccc2nc(Sc3ncccc3C(=O)O)n(Cc3ccccc3)c(=O)c2c1` showed an inhibition of growth at 10 µM of 14.2%.

System: SR
Assay: Cytotoxicity against human SR cells at 10 uM after 48 hrs by coulter counter analysis
Format: functional
Details: read-out: GI
With `Cc1ccc2nc(Sc3ncccc3C(=O)O)n(Cc3ccccc3)c(=O)c2c1` the inhibition of growth at 10 µM was 14.4%.

System: T47D
Assay: Cytotoxicity against human T47D cells at 10 uM after 48 hrs by coulter counter analysis
Format: functional
Details: read-out: GI
With `Cc1ccc2nc(Sc3ncccc3C(=O)O)n(Cc3ccccc3)c(=O)c2c1` the inhibition of growth at 10 µM was < 10%.

System: not listed separately
Assay: Cytotoxicity against human NCI-ADR-RES cells at 10 uM after 48 hrs by coulter counter analysis
Format: functional
Details: read-out: GI
`Cc1ccc2nc(Sc3ncccc3C(=O)O)n(Cc3ccccc3)c(=O)c2c1` showed an inhibition of growth at 10 µM of 12.7%.

System: A549
Assay: Cytotoxicity against human A549/ATCC cells at 10 uM after 48 hrs by coulter counter analysis
Format: functional
Details: A549, 48 h, read-out: GI
With `Cc1ccc2nc(Sc3ncccc3C(=O)O)n(Cc3ccccc3)c(=O)c2c1` the inhibition of growth at 10 µM was < 10%.

System: CCRF-CEM
Assay: Cytotoxicity against human CCRF-CEM cells at 10 uM after 48 hrs by coulter counter analysis
Format: functional
Details: read-out: GI
In the case of `Cc1ccc2nc(Sc3ncccc3C(=O)O)n(Cc3ccccc3)c(=O)c2c1`, the inhibition of growth at 10 µM was 16.5%.

Molecular target: T1, Dihydrofolate reductase (Bos taurus, UniProt P00376)
T1 sequence (P00376 whole entry): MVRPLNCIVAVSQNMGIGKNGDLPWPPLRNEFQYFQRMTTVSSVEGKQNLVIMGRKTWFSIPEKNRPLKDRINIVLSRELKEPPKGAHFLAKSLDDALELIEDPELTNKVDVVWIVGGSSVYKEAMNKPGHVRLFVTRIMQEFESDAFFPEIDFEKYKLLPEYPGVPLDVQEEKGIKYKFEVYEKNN
Assay: Inhibition of bovine DHFR after 2 mins by spectrophotometry
Details: not given
For `Cc1ccc2nc(Sc3ncccc3C(=O)O)n(Cc3ccccc3)c(=O)c2c1`, the pIC50 was 5.00.

System: IGROV-1
Assay: Cytotoxicity against human IGROV1 cells at 10 uM after 48 hrs by coulter counter analysis
Format: functional
Details: IGROV-1, 48 h, read-out: GI
Work on `Cc1ccc2nc(Sc3ncccc3C(=O)O)n(Cc3ccccc3)c(=O)c2c1` yielded an inhibition of growth at 10 µM of 16.3%.

System: MCF7
Assay: Cytotoxicity against human MCF7 cells at 10 uM after 48 hrs by coulter counter analysis
Format: functional
Details: MCF7, 48 h, read-out: GI
`Cc1ccc2nc(Sc3ncccc3C(=O)O)n(Cc3ccccc3)c(=O)c2c1` gave an inhibition of growth at 10 µM of 16.6%.

System: Pseudomonas aeruginosa
Assay: Antimicrobial activity against Pseudomonas aeruginosa at 200 ug after 24 hrs by agar disc diffusion method
Format: functional
Details: read-out: DIZ
Compound `Cc1ccc2nc(Sc3ncccc3C(=O)O)n(Cc3ccccc3)c(=O)c2c1` has a zone of inhibition at 200 µg/disc of 8 mm.

System: RPMI-8226
Assay: Cytotoxicity against human RPMI8226 cells at 10 uM after 48 hrs by coulter counter analysis
Format: functional
Details: RPMI-8226, 48 h, read-out: GI
With `Cc1ccc2nc(Sc3ncccc3C(=O)O)n(Cc3ccccc3)c(=O)c2c1` the inhibition of growth at 10 µM was 25.8%.

System: LOX IMVI
Assay: Cytotoxicity against human LOXIMVI cells at 10 uM after 48 hrs by coulter counter analysis
Format: functional
Details: read-out: GI
`Cc1ccc2nc(Sc3ncccc3C(=O)O)n(Cc3ccccc3)c(=O)c2c1` gave an inhibition of growth at 10 µM of 13.8%.

System: MDA-MB-435
Assay: Cytotoxicity against human MDA-MB-435 cells at 10 uM after 48 hrs by coulter counter analysis
Format: functional
Details: MDA-MB-435, 48 h, read-out: GI
Work on `Cc1ccc2nc(Sc3ncccc3C(=O)O)n(Cc3ccccc3)c(=O)c2c1` yielded an inhibition of growth at 10 µM of 21.8%.

System: NCI-H226
Assay: Cytotoxicity against human NCI-H226 cells at 10 uM after 48 hrs by coulter counter analysis
Format: functional
Details: NCI-H226, 48 h, read-out: GI
In the case of `Cc1ccc2nc(Sc3ncccc3C(=O)O)n(Cc3ccccc3)c(=O)c2c1`, the inhibition of growth at 10 µM was 21.2%.

System: RXF 393
Assay: Cytotoxicity against human RXF393 cells at 10 uM after 48 hrs by coulter counter analysis
Format: functional
Details: RXF 393, 48 h, read-out: GI
In the case of `Cc1ccc2nc(Sc3ncccc3C(=O)O)n(Cc3ccccc3)c(=O)c2c1`, the inhibition of growth at 10 µM was 21.5%.

System: not listed separately
Assay: Cytotoxicity against human EKVX cells at 10 uM after 48 hrs by coulter counter analysis
Format: functional
Details: read-out: GI
Work on `Cc1ccc2nc(Sc3ncccc3C(=O)O)n(Cc3ccccc3)c(=O)c2c1` yielded an inhibition of growth at 10 µM of 26.6%.

From ChEMBL document CHEMBL2375290, “Nonclassical antifolates, part 3: synthesis, biological evaluation and molecular modeling study of some new 2-heteroarylthio-quinazolin-4-ones” (Eur J Med Chem, 2013)
